Here are results for one sequence from publication PMC7961786, “Magic Peptide: Unique Properties of the LRR11 Peptide in the Activation of Leukotriene Synthesis in Human Neutrophils” (International Journal of Molecular Sciences, 2021).

Assay [1] relates to 5′-biotinylated G-rich ODN. Briefly: TSM acoustic biosensor, peptide binding to immobilized G-rich ODN. Particulars: LRR11 1 to 100 nM, Hanks buffer. An excerpt: To characterize the interaction of the studied synthetic ODNs with the LRR11 peptide, we applied the thickness shear mode (TSM) acoustic biosensor method, which is based on the investigation of ultrasonic waves in piezoelectric materials such as AT-cut quartz. This approach involved immobilizing a 5′-biotinylated ODN on the surface of TSM transducer covered by NeutrAvidin and then adding the LRR11 peptide. An unrelated peptide (URP) with a random primary structure ([…]) was used as a negative control. The measurement procedure was divided into several steps, in which each immobilization stage was followed by washing with an appropriate buffer solution; when peptide solutions at different concentrations (from 1 to 100 nM) were added to the surface-modified TSM transducer, a wash with Hanks buffer was used before increasing the peptide concentration.
Eight MHz AT-cut piezoelectric quartz crystal transducer was obtained from CH Instruments, Austin, TX, USA. The transducer was covered on both sides with thin layers of gold that served as electrodes (working area 0.2 cm^2). Prior ODNs immobilization, the crystal was carefully cleaned with basic Piranha solution (29% NH3, 30% H2O and H2O2 with volumetric 1:5:1 ratio, respectively) for 25 min. After the thorough cleaning, the crystal was positioned between two silicon O-rings in a flow-through cell. […]

Assay [2] has as its system human neutrophils, 5-LOX metabolites. Briefly: 5-LOX metabolite production in neutrophils without bacteria or other phagocytosis targets. The class given is cell-based. Particulars: in the absence of bacteria or other targets for phagocytosis. How it is done: Human neutrophils synthesize 5-LOX metabolites (leukotriene B4 (LTB4) and its isomers, ω-OH-LTB4 and 5-HETE), during phagocytosis of opsonized zymosan or S. typhimurium bacteria. In the absence of bacteria or other targets for phagocytosis, treatment of neutrophils with ODNs listed in Table 1 or with LRR11, produce less than 1 ng of LTB4, its isomers, ω-OH-LTB4, and 5-HETE per 10^7 PMNLs. The potential of the LRR11 peptide and ODNs to regulate the synthesis of products catalyzed by 5-LOX was assessed after cell incubation with ODNs (+/−LRR11) followed by the addition of opsonized S. typhimurium bacteria (OS). To test whether neutrophil incubation with ODNs, LRR11 and bacteria affects cell viability, we assessed phosphatidylserine externalization and the integrity of neutrophil membranes after 20 min with ODNs (+/−LRR11) followed by 15 min with OS at 37 °C. The data obtained by flow cytometry using double Alexa Fluor-conjugated Annexin V/propidium iodide staining indicate that in our experiment the percentage of viable cells exceeds 96% (Figure S1).
Human neutrophils were isolated from freshly taken citrate-anticoagulated peripheral blood from healthy individuals using standard methods. Leukocyte-rich plasma was prepared by sedimentation of erythrocytes with 3% dextran T-500 at room temperature. […]

“Also recorded” adds a separate entry of the source.

For the sequence “QLRKLNLSFNYQKRVSFAHLSLAPSFGSLV [LRR11, 30 amino acid peptide from leucine-rich repeat of TLR9]”, the “interaction with G-rich ODN” value in assay [1] is “does not interact with the LRR11 peptide at any concentration; also recorded: no significant change of resonant frequency was observed”. Moreover, the “LTB4, its isomers, ω-OH-LTB4, and 5-HETE produced” value in assay [2] is given as “less than 1 ng per 10^7 PMNLs”.
